# Measurements: patent US20110251379A1, “COMPOUNDS USEFUL FOR TREATING NEURODEGENERATIVE DISORDERS” (Satori Pharmaceuticals, Inc., priority 2010, published 2011)
# Read-outs that look alike come from different tables or passages of the source.
# Experiments:
# Format in all cases: cell-based
# Aβ-38 = experiment: MSD Human (6E10) Ab 3-PLEX elisa, conditioned media of 2B7 cells: Aβ-38; details: Homo sapiens; for IC50: Aβ-38 (superscript a); for inhibition at 20 µM: Aβ-38, 20 μM
# Outline: (§1)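 We dose confluent 2B7 cells for 5 hours at 37° C, keeping DMSO at 1%. Diluted media then incubates on antibody-coated plates either overnight at 4 degrees C or 2 hours at room temp.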
# Aβ-40 = experiment: MSD Human (6E10) Ab 3-PLEX elisa, conditioned media of 2B7 cells: Aβ-40; details: Homo sapiens; for IC50: Aβ-40 (superscript b); for inhibition at 100 µM: Aβ-40, 100 μM; for inhibition at 20 µM: Aβ-40, 20 μM
# Outline: as §1
# Aβ-42 = experiment: MSD Human (6E10) Ab 3-PLEX elisa, conditioned media of 2B7 cells: Aβ-42; details: Homo sapiens; for IC50: Aβ-42 (superscript c); for inhibition at 20 µM: Aβ-42, 20 μM
# Outline: as §1
SMILES,IC50 (Aβ-38; read-out: IC50 range) [µM],IC50 (Aβ-40; read-out: IC50 range) [µM],IC50 (Aβ-42; read-out: IC50 range) [µM],IC50 (Aβ-38; read-out: 50% reduction value) [µM],further results
C[C@@H]1CC(CN2CCC[C@@H]2C(=O)O)OC2[C@H]1[C@@]1(C)CC[C@@]34C[C@@]35CC[C@H](O[C@H]3CN(C(=O)CC6CC6)CCO3)C(C)(C)[C@@H]5CCC4[C@]1(C)[C@H]2O (stereo partly drawn),> 10,> 10,> 10,,
C[C@@H]1CC(CN(C)CC(=O)O)OC2[C@H]1[C@@]1(C)CC[C@@]34C[C@@]35CC[C@H](O[C@H]3CN(C(=O)CC6CC6)CCO3)C(C)(C)[C@@H]5CCC4[C@]1(C)[C@H]2O (stereo partly drawn),> 10,> 10,> 10,,
C[C@@H]1CC(COC(N)=O)OC2[C@H]1[C@@]1(C)CC[C@@]34C[C@@]35CC[C@H](O[C@H]3CN(C(=O)CC6CC6)CCO3)C(C)(C)[C@@H]5CCC4[C@]1(C)[C@H]2O (stereo partly drawn),< 1,> 10,1 to 10,,
C[C@@H]1CC(COC(=O)N2CCC2)OC2[C@H]1[C@@]1(C)CC[C@@]34C[C@@]35CC[C@H](O[C@H]3CN(C(=O)CC6CC6)CCO3)C(C)(C)[C@@H]5CCC4[C@]1(C)[C@H]2O (stereo partly drawn),< 1,1 to 10,1 to 10,,
COC(=O)NCCC1C[C@@H](C)C2C(O1)[C@H](O)[C@@]1(C)[C@@H]3CC[C@H]4C(C)(C)[C@@H](OC5CN(C(=O)CC6CC6)CCO5)CC[C@@]45C[C@@]35CC[C@]21C (stereo partly drawn),1 to 10,,1 to 10,,inhibition at 100 µM (Aβ-40): 25 to 75%
C[C@@H]1CC(CC(=O)O)OC2[C@H]1[C@@]1(C)CC[C@@]34C[C@@]35CC[C@H](O[C@H]3CN(C(=O)CC6CC6)CCO3)C(C)(C)[C@@H]5CCC4[C@]1(C)[C@H]2O (stereo partly drawn),> 10,> 10,1 to 10,,
C[C@@H]1CC(CCC(N)=O)OC2C1[C@@]1(C)CC[C@@]34C[C@@]35CC[C@H](OC3CN(C(=O)CC6CC6)CCO3)C(C)(C)[C@@H]5CC[C@H]4[C@]1(C)[C@H]2O (stereo partly drawn),1 to 10,> 10,1 to 10,,
COC(=O)OCC1C[C@@H](C)[C@H]2C(O1)[C@H](O)[C@@]1(C)C3CC[C@H]4C(C)(C)[C@@H](OC5CN(C(=O)CC6CC6)CCO5)CC[C@@]45C[C@@]35CC[C@]21C (stereo partly drawn),1 to 10,,,,"inhibition at 100 µM (Aβ-40): 25 to 75%; inhibition at 100 µM (Aβ-42; Aβ-42, 100 μM): 25 to 75%"
C[C@@H]1CC(C(=O)O)OC2[C@H]1[C@@]1(C)CC[C@@]34C[C@@]35CC[C@H](OC3CN(C(=O)CC6CC6)CCO3)C(C)(C)[C@@H]5CCC4[C@]1(C)[C@H]2O (stereo partly drawn),> 10,> 10,1 to 10,,
C[C@@H]1CC(COC(N)=O)OC2[C@H]1[C@@]1(C)CC[C@@]34C[C@@]35CC[C@H](O)C(C)(C)[C@@H]5CCC4[C@]1(C)[C@H]2O (stereo partly drawn),,,,> 10,inhibition at 20 µM (Aβ-38): 25 to 75%; IC50 (Aβ-40; read-out: 50% reduction value): > 10 µM; inhibition at 20 µM (Aβ-42): 25 to 75%
CNC(=O)OCC1C[C@@H](C)[C@H]2C(O1)[C@H](O)[C@@]1(C)C3CC[C@H]4C(C)(C)[C@@H](O)CC[C@@]45C[C@@]35CC[C@]21C (stereo partly drawn),,,,1 to 10,inhibition at 20 µM (Aβ-38): 25 to 75%; inhibition at 20 µM (Aβ-40): 25 to 75%; IC50 (Aβ-42; read-out: 50% reduction value): 1 to 10 µM
CC(C)[C@@H](OC(=O)C1CCOCC1)C1C[C@@H](C)[C@H]2C(O1)[C@H](O)[C@@]1(C)[C@@H]3CC[C@H]4C(C)(C)C(O)CC[C@@]45C[C@@]35CC[C@]21C (stereo partly drawn),> 10,1 to 10,1 to 10,,
CCOCC1C[C@@H](C)[C@H]2C(O1)[C@H](O)[C@@]1(C)C3CC[C@H]4C(C)(C)C(O[C@H]5CN(C6COC6)CCO5)CC[C@@]45C[C@@]35CC[C@]21C (stereo partly drawn),1 to 10,,,,inhibition at 20 µM (Aβ-38): 25 to 75%; inhibition at 20 µM (Aβ-40): < 75%; inhibition at 20 µM (Aβ-42): < 25%
C=C(C)CO[C@@H](C1C[C@@H](C)[C@H]2C(O1)[C@H](O)[C@@]1(C)C3CC[C@H]4C(C)(C)C(O[C@H]5CN(C6COC6)CCO5)CC[C@@]45C[C@@]35CC[C@]21C)C(C)(C)O (stereo partly drawn),< 1,,< 1,< 1,IC50 (Aβ-40; read-out: 50% reduction value): 1 to 10 µM; IC50 (Aβ-42; read-out: 50% reduction value): < 1 µM
CC(C)CO[C@@H](C1C[C@@H](C)[C@H]2C(O1)[C@H](O)[C@@]1(C)C3CC[C@H]4C(C)(C)C(O[C@H]5CN(C6COC6)CCO5)CC[C@@]45C[C@@]35CC[C@]21C)C(C)(C)O (stereo partly drawn),< 1,1 to 10,,< 1,IC50 (Aβ-40; read-out: 50% reduction value): 1 to 10 µM; IC50 (Aβ-42; read-out: 50% reduction value): 1 to 10 µM
CO[C@@H]([C@H]1C[C@@H](C)[C@H]2[C@H](O1)[C@H](O)[C@@]1(C)[C@@H]3CC[C@H]4C(C)(C)[C@@H](OC5CN(C(=O)C(C)C)CCO5)CC[C@@]45C[C@@]35CC[C@]21C)C(C)(C)O (stereo partly drawn),< 1,,< 1,< 1,IC50 (Aβ-40; read-out: 50% reduction value): 1 to 10 µM; IC50 (Aβ-42; read-out: 50% reduction value): < 1 µM
